Assay results published in PubChem BioAssay AID248 (DTP/NCI, 2004).
Where “and” joins values, the source holds several entries; their conditions need not be identical. Equal values may be shown once. Toxic doses and inconclusive results are not listed. No stated cut-off is given here; in the data, active means T/C of 150% or more; inactive means T/C below 125%.

System: L1210 leukemia ip in BDF1 mice, survival T/C
Test: NCI In Vivo Anticancer Drug Screen. Data for tumor model L1210 Leukemia (intraperitoneal) in B6D2F1 (BDF1) mice
Conditions: endpoint: mean survival time, higher = longer survival
In short: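 Each compound was tested against a transplantable tumor grown in mice. The endpoint was survival, with treated animals benchmarked against vehicle controls as a simple ratio.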

[1] = dose: 12.5 mg/kg/injection, schedule: Q01DX009 (ip), vehicle: Klucel (hydroxypropylcellulose) (HPC)
[2] = dose: 100.0 mg/kg/injection, schedule: Q01DX001 (ip), vehicle: saline
[3] = dose: 200.0 mg/kg/injection, schedule: Q01DX001 (ip), vehicle: saline
[4] = dose: 400.0 mg/kg/injection, schedule: Q01DX001 (ip), vehicle: saline
[5] = dose: 100.0 mg/kg/injection, schedule: Q04DX003 (ip), vehicle: saline
[6] = dose: 200.0 mg/kg/injection, schedule: Q04DX003 (ip), vehicle: saline
[7] = dose: 400.0 mg/kg/injection, schedule: Q04DX003 (ip), vehicle: saline
[8] = dose: 100.0 mg/kg/injection, schedule: Q04DX003 (ip), vehicle: saline with Tween-80
[9] = dose: 200.0 mg/kg/injection, schedule: Q04DX003 (ip), vehicle: saline with Tween-80
[10] = dose: 400.0 mg/kg/injection, schedule: Q04DX003 (ip), vehicle: saline with Tween-80
[11] = dose: 12.5 mg/kg/injection, schedule: Q04DX002 (ip), vehicle: Klucel (hydroxypropylcellulose) (HPC)
[12] = dose: 25.0 mg/kg/injection, schedule: Q04DX002 (ip), vehicle: Klucel (hydroxypropylcellulose) (HPC)
[13] = dose: 50.0 mg/kg/injection, schedule: Q01DX001 (ip), vehicle: saline with Tween-80
[14] = dose: 100.0 mg/kg/injection, schedule: Q01DX001 (ip), vehicle: saline with Tween-80
[15] = dose: 100.0 mg/kg/injection, schedule: Q01DX009 (ip), vehicle: saline with Tween-80
[16] = dose: 200.0 mg/kg/injection, schedule: Q04DX002 (ip), vehicle: Klucel (hydroxypropylcellulose) (HPC)
[17] = dose: 100.0 mg/kg/injection, schedule: Q04DX003 (ip), vehicle: Klucel (hydroxypropylcellulose) (HPC)
[18] = dose: 200.0 mg/kg/injection, schedule: Q04DX003 (ip), vehicle: Klucel (hydroxypropylcellulose) (HPC)
[19] = dose: 400.0 mg/kg/injection, schedule: Q04DX003 (ip), vehicle: Klucel (hydroxypropylcellulose) (HPC)
[20] = dose: 100.0 mg/kg/injection, schedule: Q01DX009 (ip), vehicle: Klucel (hydroxypropylcellulose) (HPC)
[21] = dose: 200.0 mg/kg/injection, schedule: Q01DX009 (ip), vehicle: Klucel (hydroxypropylcellulose) (HPC)

Measured: T/C

CCCCCCCCCC(=O)N/N=C/c1ccccc1Cl
inactive: [1] 112 % of control | dose: 25.0 mg/kg/injection, schedule: Q01DX009 (ip), vehicle: Klucel (hydroxypropylcellulose) (HPC) 113 % of control | dose: 50.0 mg/kg/injection, schedule: Q01DX009 (ip), vehicle: Klucel (hydroxypropylcellulose) (HPC) 104 % of control

O=C(CN1C(=O)c2ccccc2C1=O)c1cccc(Br)c1
inactive: [2] 95 % of control | [3] 104 % of control | [4] 103 % of control

C=C/C=C1\CCOC1=O
inactive: [2] 102 % of control | dose: 100.0 mg/kg/injection, schedule: Q01DX009 (ip), vehicle: saline 101 % of control and 112 % of control | dose: 100.0 mg/kg/injection, schedule: Q04DX002 (ip), vehicle: saline 100 % of control and 111 % of control | [5] 112 % of control | [3] 116 % of control | dose: 200.0 mg/kg/injection, schedule: Q01DX009 (ip), vehicle: saline 104 % of control and 118 % of control | dose: 200.0 mg/kg/injection, schedule: Q04DX002 (ip), vehicle: saline 104 % of control | [6] 100 % of control | [4] 110 % of control | dose: 400.0 mg/kg/injection, schedule: Q01DX009 (ip), vehicle: saline 107 % of control and 115 % of control | dose: 400.0 mg/kg/injection, schedule: Q04DX002 (ip), vehicle: saline 100 % of control and 102 % of control | [7] 115 % of control

Nc1ccc2c(c1)Cc1cc(NC(=O)C(F)(F)F)ccc1-2
inactive: [8] 100 % of control | [9] 96 % of control | [10] 92 % of control

C=[CH][Sn]([CH]=C)([CH]=C)[O]C(C)=O
inactive: dose: 1.56 mg/kg/injection, schedule: Q01DX009 (ip), vehicle: Klucel (hydroxypropylcellulose) (HPC) 103 % of control | dose: 3.12 mg/kg/injection, schedule: Q01DX009 (ip), vehicle: Klucel (hydroxypropylcellulose) (HPC) 94 % of control | dose: 6.25 mg/kg/injection, schedule: Q01DX009 (ip), vehicle: Klucel (hydroxypropylcellulose) (HPC) 98 % of control | [1] 103 % of control | [11] 102 % of control | [12] 105 % of control

CC(=O)OCC1CCC(NC(=O)NCCF)CC1 (stereo unspecified)
inactive: [13] 101 % of control | [14] 106 % of control | dose: 200.0 mg/kg/injection, schedule: Q01DX001 (ip), vehicle: saline with Tween-80 95 % of control

O=C(Cc1ccccc1)Nc1ccc[n+](Cc2ccc(S(=O)(=O)F)cc2)c1
inactive: [5] 108 % of control and 122 % of control | [6] 113 % of control and 114 % of control

CCCC[Si]CCCC
inactive: dose: 25.0 mg/kg/injection, schedule: Q01DX001 (ip), vehicle: saline with Tween-80 103 % of control | dose: 25.0 mg/kg/injection, schedule: Q01DX009 (ip), vehicle: saline with Tween-80 103 % of control | [13] 110 % of control | dose: 50.0 mg/kg/injection, schedule: Q01DX009 (ip), vehicle: saline with Tween-80 101 % of control | [14] 102 % of control | [15] 101 % of control

COC(=O)C1(C)CCCC2(C)C3CCC4(C)CC3(CCC12)CC4S(=O)(=O)c1ccc(C)cc1 (stereo unspecified)
inactive: [11] 100 % of control | [12] 89 % of control | dose: 50.0 mg/kg/injection, schedule: Q04DX002 (ip), vehicle: Klucel (hydroxypropylcellulose) (HPC) 95 % of control and 106 % of control | [16] 86 % of control

Nc1nc(SC2CCCCC2)c2[nH]cnc2n1
inactive: dose: 60.0 mg/kg/injection, schedule: Q01DX Z (ip), vehicle: carboxymethylcellulose (CMC) 95 % of control | dose: 120.0 mg/kg/injection, schedule: Q01DX Z (ip), vehicle: carboxymethylcellulose (CMC) 104 % of control | dose: 240.0 mg/kg/injection, schedule: Q01DX Z (ip), vehicle: carboxymethylcellulose (CMC) 106 % of control | dose: 480.0 mg/kg/injection, schedule: Q01DX Z (ip), vehicle: carboxymethylcellulose (CMC) 112 % of control

O=[N+]([O-])c1cccc(Cl)c1Oc1cc(Cl)c(Cl)cc1Cl
inactive: dose: 1.25 mg/kg/injection, schedule: Q01DX001 (ip), vehicle: saline 105 % of control | dose: 2.5 mg/kg/injection, schedule: Q01DX001 (ip), vehicle: saline 105 % of control | dose: 5.0 mg/kg/injection, schedule: Q01DX001 (ip), vehicle: saline 102 % of control | dose: 10.0 mg/kg/injection, schedule: Q01DX001 (ip), vehicle: saline 96 % of control

O=C(OCC1OC(n2c(=O)[nH]c(=S)c3ncsc32)C(OC(=O)c2ccccc2)C1OC(=O)c1ccccc1)c1ccccc1 (stereo unspecified)
inactive: dose: 100.0 mg/kg/injection, schedule: Q01DX005 (ip), vehicle: saline 95 % of control | dose: 200.0 mg/kg/injection, schedule: Q01DX005 (ip), vehicle: saline 91 % of control

O=C(Cl)C12CCC(CC1)C1CCC2CC1
inactive: [5] 86 % of control | [6] 92 % of control | [7] 97 % of control

CNC
inactive: dose: 25.0 mg/kg/injection, schedule: Q04DX002 (ip), vehicle: saline with Tween-80 95 % of control | dose: 50.0 mg/kg/injection, schedule: Q04DX002 (ip), vehicle: saline with Tween-80 88 % of control | dose: 100.0 mg/kg/injection, schedule: Q04DX002 (ip), vehicle: saline with Tween-80 88 % of control

Clc1ccc(N=Cc2ccccc2Cl)cc1
inactive: [15] 94 % of control | dose: 200.0 mg/kg/injection, schedule: Q01DX009 (ip), vehicle: saline with Tween-80 92 % of control | dose: 400.0 mg/kg/injection, schedule: Q01DX009 (ip), vehicle: saline with Tween-80 89 % of control

CS(=O)(=O)OCC1CCc2[nH]c3ccccc3c2C1 (stereo unspecified)
inactive: [17] 108 % of control | [18] 97 % of control | [19] 97 % of control

CCCN=Cc1cc(Cl)ccc1O.CCCN=Cc1cc(Cl)ccc1O.[Ni]
inactive: dose: 100.0 mg/kg/injection, schedule: Q01DX008 (sc), vehicle: olive oil, sesame oil, peanut oil 104 % of control | dose: 200.0 mg/kg/injection, schedule: Q01DX008 (sc), vehicle: olive oil, sesame oil, peanut oil 98 % of control | dose: 400.0 mg/kg/injection, schedule: Q01DX008 (sc), vehicle: olive oil, sesame oil, peanut oil 86 % of control

CCC(=O)N/N=C/C=N/NC(=O)c1ccncc1
inactive: dose: 75.0 mg/kg/injection, schedule: Q01DX001 (ip), vehicle: saline 96 % of control | dose: 100.0 mg/kg/injection, schedule: Q01DX001 (ip), vehicle: Klucel (hydroxypropylcellulose) (HPC) 97 % of control | [20] 93 % of control | dose: 150.0 mg/kg/injection, schedule: Q01DX001 (ip), vehicle: saline 99 % of control | dose: 200.0 mg/kg/injection, schedule: Q01DX001 (ip), vehicle: Klucel (hydroxypropylcellulose) (HPC) 101 % of control | [21] 100 % of control | dose: 300.0 mg/kg/injection, schedule: Q01DX001 (ip), vehicle: saline 92 % of control | dose: 400.0 mg/kg/injection, schedule: Q01DX001 (ip), vehicle: Klucel (hydroxypropylcellulose) (HPC) 94 % of control

O=C1CC(c2ccccc2)=CN1c1ccc2ccccc2c1
inactive: dose: 100.0 mg/kg/injection, schedule: Q04DX002 (ip), vehicle: Klucel (hydroxypropylcellulose) (HPC) 100 % of control | [16] 89 % of control | dose: 400.0 mg/kg/injection, schedule: Q04DX002 (ip), vehicle: Klucel (hydroxypropylcellulose) (HPC) 100 % of control

N#Cc1cc(C#N)c(NN)nc1N
inactive: [8] 86 % of control | [9] 94 % of control | [10] 92 % of control

COc1ccc(N=C(N)NC#N)cc1
inactive: [20] 100 % of control | [17] 93 % of control | [21] 97 % of control | [18] 92 % of control | [19] 97 % of control
